pIC50: −log10 of the molar value.
Legend:
[1] = biological target: T1, STAT3 (Homo sapiens, UniProt P40763); assay: dual luciferase assay for STAT3 inhibitory activity in transfected HCT116 cells; format: cell-based; conditions: HCT116 cells transfected with STAT3-dependent firefly luciferase; 12 hrs or 24 hrs; read-out: concentration inhibiting 50% of STAT3 activity
T1 construct: Colorectal carcinoma HCT116 cells were co-transfected with a plasmid carrying firefly luciferase, whose expression increases with STAT3 activity; endogenous in cells; host or cells: HCT116 human colorectal carcinoma cells
T1 sequence (P40763 whole entry): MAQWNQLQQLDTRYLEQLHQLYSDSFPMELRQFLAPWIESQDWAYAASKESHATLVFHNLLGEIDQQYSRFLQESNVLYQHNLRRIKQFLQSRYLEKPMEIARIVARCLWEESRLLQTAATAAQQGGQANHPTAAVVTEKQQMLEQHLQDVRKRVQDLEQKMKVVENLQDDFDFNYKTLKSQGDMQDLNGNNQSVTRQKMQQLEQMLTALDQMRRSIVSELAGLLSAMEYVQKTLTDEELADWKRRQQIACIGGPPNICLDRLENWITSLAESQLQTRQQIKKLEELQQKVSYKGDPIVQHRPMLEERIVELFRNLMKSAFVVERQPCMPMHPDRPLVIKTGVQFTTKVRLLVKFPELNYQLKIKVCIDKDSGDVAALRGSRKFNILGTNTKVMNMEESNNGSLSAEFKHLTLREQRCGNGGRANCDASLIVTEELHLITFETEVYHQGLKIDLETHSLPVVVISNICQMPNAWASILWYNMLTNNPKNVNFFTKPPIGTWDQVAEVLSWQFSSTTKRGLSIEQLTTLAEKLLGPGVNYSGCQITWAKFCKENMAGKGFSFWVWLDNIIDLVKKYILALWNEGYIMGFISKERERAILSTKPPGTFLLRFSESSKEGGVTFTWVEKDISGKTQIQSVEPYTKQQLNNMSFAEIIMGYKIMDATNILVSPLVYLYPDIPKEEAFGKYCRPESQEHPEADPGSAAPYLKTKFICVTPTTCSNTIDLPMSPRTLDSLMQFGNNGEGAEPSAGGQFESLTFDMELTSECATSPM
Method: A dual luciferase assay was performed to determine whether the oxadiazole urea compound of the present invention has inhibitory activity against STAT3.
Colorectal carcinoma HCT116 cells were co-transfected with a plasmid carrying firefly luciferase, whose expression increases with STAT3 activity, and another plasmid carrying renilla luciferase, which is expressed independently of STAT3 activity. The transfected HCT116 cells were detached using 0.05% trypsin EDTA and seeded onto a 96-well test plate at a density of 1×10^4 cells per well. Cells were cultured in an incubator at 37[…] under 5% CO2 for 3 hrs, and then incubated with DMSO (1%) alone as a control and with the oxadiazole urea compound (dissolved in DMSO) at various concentrations (diluted 1/100).
After 12 hrs or 24 hrs, STAT activity was assayed by adding two different substrates for firefly luciferase and renilla luciferase, beetle luciferin and coelenterazine, to the medium. The luminescence intensity by substrate degradation was measured using a luminometer (Wallac 1420). The measured firefly luciferase activity reflected STAT3 activity in a proportional manner. Renilla luciferase was used to calibrate non-specific cytotoxicity, occurring in each test group, and internal deviation.

[2] = system: colorectal carcinoma HCT116 cells; assay: WST-1 growth inhibition assay, HCT116; format: cell-based; conditions: Homo sapiens, HCT-116, 24 hrs
Method: (§1) The oxadiazole urea compound of the present invention was estimated for growth inhibitory activity against other human cancer cell lines in a WST-1 assay.
(§2) Human cancer cell lines were cultured in 10% fetal bovine serum (FBS)-containing medium at 37[…] under 5% CO2, and detached using 0.05% trypsin-EDTA. Cells were seeded onto a 96-well plate at a density of 5×10^3 cells per well (for MDA-MB-231 and MDA-MB-468 breast cancer cells) or at a density of 7×10^3 cells per well (for colorectal carcinoma HCT116 and colon cancer SW620 cells).
(§3) Then, cells were cultured in 10% FBS containing medium in an incubator at 37[…] under 5% CO2. After 24 hrs, the medium was exchanged with a medium containing 0.1% DMSO (as a control), or with media containing the oxadiazole urea compound at various concentrations (the compound dissolved in DMSO was diluted in medium), and cells were further cultured for 24 hrs. 10 μl of WST-1 Reagent (Roche) was added to each well, and the plate was incubated for 2 hrs. Absorbance was measured at 450 nm using an ELISA reader (Bio-Rad).

[3] = system: MDA-MB-468 breast cancer cells; assay: WST-1 growth inhibition assay, MDA-MB-468; format: cell-based; conditions: Homo sapiens, MDA-MB-468 cells, 24 hrs
Method: as §1, §2, §3

[4] = system: colon cancer SW620 cells; assay: WST-1 growth inhibition assay, SW620; format: cell-based; conditions: Homo sapiens, SW-620, 24 hrs
Method: as §1, §2, §3

[5] = system: MDA-MB-231 breast cancer cells; assay: WST-1 growth inhibition assay, MDA-MB-231; format: cell-based, human; conditions: MDA-MB-231 cells, 24 hrs
Method: as §1, §2, §3

[6] = system: SD rats; assay: acute toxicity test on oral application in rats; format: in vivo; conditions: single oral dose of 1 g/kg/ml
Method: An acute toxicity test was conducted with 6-week-old specific pathogen-free (SPF) SD rats. The present compound was suspended in injectable distilled water, and orally administered to two SD rats per group at a single dose of 1 g/kg/ml. […] After autopsy, abnormalities of abdominal and thoracic organs were visually observed.

[7] = solubility in solvents; format: physicochemical

`O=C(Nc1ccc(C(F)(F)F)cc1)Nc1nonc1-c1ccc(Cl)cc1` [compound of Chemical Formula 1] gave a pIC50 [1] of 5.52 to 5.60, a GI50 [2] of 15 µM and a GI50 [3] of 40 µM. The GI50 [4] was 70 µM, the “50% growth inhibition concentration” value [5] was no less than 100 μm and the clinical symptoms [6] was “no special clinical symptoms”. For the same compound, the “solubility in a nonpolar solvent” value ([7]; nonpolar solvent, such as hexane) was “not dissolved” and the “solubility in a polar solvent” value ([7]; polar solvent, such as DMSO) was “well dissolved”.

Source: US7799811B2, “Agent for prevention and treatment of cancer comprising oxadiazole urea compound obstructing activity of stat” (Korea Research Institute of Bioscience and Biotechnology, priority 2006, dated 2010)
